Source: US8063220B2, “Sulfonyl-quinoline derivatives” (Richter Gedeon Nyrt., priority 2007, dated 2011)

Columns and labels:
[1] = biological target: T1, rat mGluR5 (Rattus norvegicus, UniProt P31424); assay: MGluR5 receptor binding test ([3H]-M-MPEP displacement, rat cerebro-cortical membrane preparation); settings: rat mGluR5, [3H]-M-MPEP 2 nM; read-out: mGlu5 Ki
T1 construct: Rat cerebro-cortical membrane preparation was used; from tissue; host or cells: rat cerebral cortex (membrane preparation)
Protocol: Rat cerebro-cortical membrane preparation was used to determine the binding characteristics of reference compounds and novel compounds to the rat mGluR5. The A18 cell line expressing hmGluR5a (purchased from Euroscreen) was used to determine binding characteristics of the chemical compounds to the human mGluR5a receptor. [3H]-M-MPEP (2 nM) was used as radioligand. The nonspecific binding was determined in the presence of 10 μM M-MPEP.

[2] = biological target: T2, rat mGluR1 (Rattus norvegicus, UniProt P23385); assay: MGluR1 receptor binding test ([3H]R214127 displacement, rat cerebellar membrane preparation); settings: rat mGluR1, [3H]R214127 3 nM; read-out: mGlu1 Ki
T2 construct: rat cerebellar membrane preparation was used; from tissue; host or cells: rat cerebellum (membrane preparation)
Protocol: MGluR1 receptor binding tests were performed according to modified method of Lavreysen et al. (Mol. Pharm., 2003, 63, 1082). Based on the high homology between the human and rat mGluR1 receptors, rat cerebellar membrane preparation was used to determine the binding characteristics of reference compounds and novel compounds to the rat mGluR1. [3H]R214127 (3 nM) was used as radioligand and the nonspecific binding was determined in the presence of 1 μM of R214127.
IC-50 values were determined from displacement curves by nonlinear regression analysis and were converted to Ki values using the equation method of Cheng and Prusoff (Biochem. Pharmacol., 1973, 22, 3099).

T2 sequence (P23385 19-1199): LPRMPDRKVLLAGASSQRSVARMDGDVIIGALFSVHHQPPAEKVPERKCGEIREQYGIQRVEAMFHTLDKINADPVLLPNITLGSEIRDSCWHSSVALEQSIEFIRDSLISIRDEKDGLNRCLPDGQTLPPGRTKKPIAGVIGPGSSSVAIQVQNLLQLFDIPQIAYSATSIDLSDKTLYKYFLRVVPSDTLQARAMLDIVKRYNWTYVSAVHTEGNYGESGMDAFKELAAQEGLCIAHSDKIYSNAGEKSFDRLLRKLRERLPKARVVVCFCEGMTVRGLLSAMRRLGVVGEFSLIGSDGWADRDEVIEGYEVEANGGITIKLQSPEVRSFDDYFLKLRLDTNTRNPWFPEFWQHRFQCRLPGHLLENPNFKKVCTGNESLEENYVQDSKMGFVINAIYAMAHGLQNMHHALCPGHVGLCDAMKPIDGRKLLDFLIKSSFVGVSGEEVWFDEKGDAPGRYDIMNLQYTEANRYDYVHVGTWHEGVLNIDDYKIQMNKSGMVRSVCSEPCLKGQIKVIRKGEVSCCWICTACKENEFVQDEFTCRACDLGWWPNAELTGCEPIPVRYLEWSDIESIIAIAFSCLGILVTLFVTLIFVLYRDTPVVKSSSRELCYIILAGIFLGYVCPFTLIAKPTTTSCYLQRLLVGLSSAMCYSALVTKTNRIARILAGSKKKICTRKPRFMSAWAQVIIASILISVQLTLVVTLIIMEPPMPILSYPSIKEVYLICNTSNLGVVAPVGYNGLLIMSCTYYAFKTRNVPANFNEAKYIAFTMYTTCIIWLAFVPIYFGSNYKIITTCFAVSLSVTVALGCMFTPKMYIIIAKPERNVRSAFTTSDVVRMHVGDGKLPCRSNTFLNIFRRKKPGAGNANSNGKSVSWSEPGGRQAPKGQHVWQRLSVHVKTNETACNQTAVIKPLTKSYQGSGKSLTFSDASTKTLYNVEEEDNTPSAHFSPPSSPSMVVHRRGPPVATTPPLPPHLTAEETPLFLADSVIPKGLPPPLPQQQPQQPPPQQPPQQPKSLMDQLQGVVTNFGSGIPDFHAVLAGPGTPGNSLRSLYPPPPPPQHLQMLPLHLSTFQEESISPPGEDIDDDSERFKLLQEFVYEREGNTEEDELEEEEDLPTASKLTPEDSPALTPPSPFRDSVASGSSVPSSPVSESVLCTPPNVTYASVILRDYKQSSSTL
T1 sequence (P31424 21-1203): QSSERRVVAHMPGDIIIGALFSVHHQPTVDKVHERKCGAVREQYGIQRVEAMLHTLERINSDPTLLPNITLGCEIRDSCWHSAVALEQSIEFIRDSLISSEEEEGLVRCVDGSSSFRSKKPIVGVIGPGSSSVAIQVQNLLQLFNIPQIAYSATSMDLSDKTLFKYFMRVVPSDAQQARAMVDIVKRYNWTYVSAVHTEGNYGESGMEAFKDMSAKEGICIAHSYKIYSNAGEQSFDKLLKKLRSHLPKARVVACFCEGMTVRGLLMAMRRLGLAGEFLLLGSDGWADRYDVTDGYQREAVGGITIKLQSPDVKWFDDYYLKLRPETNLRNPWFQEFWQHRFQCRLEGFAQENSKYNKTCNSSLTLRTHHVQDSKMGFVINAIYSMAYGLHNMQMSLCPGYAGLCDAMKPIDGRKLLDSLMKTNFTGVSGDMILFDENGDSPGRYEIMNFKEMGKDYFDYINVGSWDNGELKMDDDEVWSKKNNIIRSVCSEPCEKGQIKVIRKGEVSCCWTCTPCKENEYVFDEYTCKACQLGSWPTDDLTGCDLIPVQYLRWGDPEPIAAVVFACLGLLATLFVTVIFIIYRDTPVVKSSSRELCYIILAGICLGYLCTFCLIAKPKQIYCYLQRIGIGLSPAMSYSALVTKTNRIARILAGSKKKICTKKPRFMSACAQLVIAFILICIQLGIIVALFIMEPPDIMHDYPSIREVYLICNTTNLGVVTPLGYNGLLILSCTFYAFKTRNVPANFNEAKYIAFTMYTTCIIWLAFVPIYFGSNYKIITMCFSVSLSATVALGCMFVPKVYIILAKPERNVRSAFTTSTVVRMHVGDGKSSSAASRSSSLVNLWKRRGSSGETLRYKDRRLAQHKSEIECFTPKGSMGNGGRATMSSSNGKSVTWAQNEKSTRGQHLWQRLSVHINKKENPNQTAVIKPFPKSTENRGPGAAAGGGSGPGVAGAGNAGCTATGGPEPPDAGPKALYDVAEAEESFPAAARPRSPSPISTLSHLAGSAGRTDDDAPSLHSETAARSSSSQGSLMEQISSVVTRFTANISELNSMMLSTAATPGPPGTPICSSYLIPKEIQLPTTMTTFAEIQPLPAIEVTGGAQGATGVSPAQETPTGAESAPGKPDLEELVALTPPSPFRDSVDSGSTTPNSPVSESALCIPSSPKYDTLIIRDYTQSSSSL

| Structure (SMILES) | Ki [1] [nM] | Ki [2] [nM] |
| --- | --- | --- |
| O=S(=O)(c1cc(Cl)cc(Cl)c1)c1cnc2c(F)cccc2c1-c1ccc(F)cc1 [Compound 50] | < 200 | < 200 |
| COc1ccc(-c2c(S(=O)(=O)c3cc(F)cc(F)c3)cnc3cc(F)ccc23)cc1 [Compound 89] | < 200 | > 500 |
| O=S(=O)(c1ccc(F)c(F)c1)c1cnc2ccccc2c1-c1cccc(F)c1 [Compound 240] | < 200 | > 500 |
| Cc1ccc(S(=O)(=O)c2cnc3cc(F)ccc3c2-c2ccc(Cl)cc2)cc1C [Compound 45] | < 200 | > 500 |
| N#Cc1cccc(S(=O)(=O)c2cnc3cc(Cl)ccc3c2-c2ccc(Cl)cc2)c1 [Compound 177] | < 200 | > 500 |
| N#Cc1ccc2c(-c3ccc(F)cc3)c(S(=O)(=O)c3ccc(F)c(F)c3)cnc2c1 [Compound 192] | > 500 | > 500 |
| COc1ccc(-c2c(S(=O)(=O)c3ccc(F)cc3)cnc3ccc(F)cc23)cc1 [Compound 27] | > 500 | > 500 |
| O=S(=O)(c1ccc(F)c(Cl)c1)c1cnc2cc(F)c(Cl)cc2c1-c1ccccc1F [Compound 194] | > 500 | > 500 |
| N#Cc1cc(F)cc(S(=O)(=O)c2cnc3ccccc3c2-c2cccc(F)c2)c1 [Compound 207] | < 200 | > 500 |
| COc1ccc(S(=O)(=O)c2cnc3cc(F)ccc3c2-c2ccc(F)cc2)cc1 [Compound 14] | 200 to 500 | > 500 |
| O=S(=O)(c1ccc(F)c(F)c1)c1cnc2cc(F)ccc2c1-c1ccc(F)cc1 [Compound 101, 3-(3,4-difluoro-benzenesulfonyl)-7-fluoro-4-(4-fluoro-phenyl)-quinoline] | < 200 | 200 to 500 |
| COc1cccc(-c2c(S(=O)(=O)c3ccc(OC)c(Cl)c3)cnc3ccc(F)cc23)c1 [Compound 75] | < 200 | > 500 |
| O=S(=O)(c1ccc(Cl)cc1)c1cnc2cc(Cl)ccc2c1-c1ccc(F)cc1 [Compound 4, 7-chloro-3-(4-chloro-benzenesulfonyl)-4-(4-fluoro-phenyl)-quinoline] | < 200 | 200 to 500 |
| O=S(=O)(c1ccc(F)c(F)c1)c1cnc2ccccc2c1-c1ccc(Cl)c(Cl)c1 [Compound 260] | < 200 | > 500 |
| O=S(=O)(c1cccc(F)c1)c1cnc2cc(F)ccc2c1-c1ccc(Cl)cc1 [Compound 41] | < 200 | > 500 |
| N#Cc1cccc(S(=O)(=O)c2cnc3cc(F)ccc3c2-c2ccccc2F)c1 [Compound 230] | < 200 | > 500 |
| O=S(=O)(c1ccc(F)c(Cl)c1)c1cnc2cc(Cl)ccc2c1-c1ccccc1F [Compound 233] | < 200 | < 200 |
| O=S(=O)(c1ccc(Cl)c(Cl)c1)c1cnc2c(Cl)cccc2c1-c1cccc(Cl)c1 [Compound 7] | < 200 | < 200 |
| O=S(=O)(c1ccc(F)c(F)c1)c1cnc2c(F)c(Cl)ccc2c1-c1ccc(Cl)cc1 [Compound 204] | < 200 | > 500 |
| O=S(=O)(c1ccc(Cl)c(Cl)c1)c1cnc2cc(Cl)ccc2c1-c1ccc(F)c(F)c1 [Compound 248] | < 200 | 200 to 500 |
| COc1ccc(-c2c(S(=O)(=O)c3ccc(F)c(F)c3)cnc3c(F)cccc23)cc1 [Compound 122] | < 200 | > 500 |
| O=S(=O)(c1ccc(Cl)cc1)c1cnc2c(Cl)ccc(Cl)c2c1-c1cccc(Cl)c1 [Compound 185] | > 500 | > 500 |
| O=S(=O)(c1ccc(F)c(F)c1)c1cnc2c(F)cccc2c1-c1cc(F)cc(F)c1 [Compound 236] | < 200 | 200 to 500 |
| O=S(=O)(c1cccc(F)c1)c1cnc2c(F)cccc2c1-c1ccc(F)cc1 [Compound 63] | < 200 | 200 to 500 |

| Structure (SMILES) | Ki [1] [nM] | Ki [2] [nM] |
| --- | --- | --- |
| N#Cc1cccc(S(=O)(=O)c2cnc3cc(F)ccc3c2-c2cccc(F)c2)c1 [Compound 38] | < 200 | 200 to 500 |
| O=S(=O)(c1ccc(F)cc1)c1cnc2cc(F)ccc2c1-c1cccc(F)c1 [Compound 9, 7-fluoro-3-(4-fluoro-benzenesulfonyl)-4-(3-fluoro-phenyl)-quinoline] | < 200 | 200 to 500 |
| O=S(=O)(c1ccc(F)c(F)c1)c1cnc2c(F)cccc2c1-c1cccc(F)c1 [Compound 121] | < 200 | < 200 |
| O=S(=O)(c1ccc(F)c(Cl)c1)c1cnc2cc(F)ccc2c1-c1ccccc1F [Compound 224] | < 200 | 200 to 500 |
| COc1ccc(-c2c(S(=O)(=O)c3ccc(F)cc3)cnc3c(F)cccc23)cc1 [Compound 52] | < 200 | > 500 |
| O=S(=O)(c1ccc(Cl)c(F)c1)c1cnc2cc(F)c(Cl)cc2c1-c1cccc(F)c1 [Compound 188] | 200 to 500 | > 500 |
| O=S(=O)(c1cccc(F)c1)c1cnc2ccc(F)cc2c1-c1ccc(Cl)cc1 [Compound 32] | > 500 | > 500 |
| O=S(=O)(c1ccc(Cl)cc1)c1cnc2ccc(F)cc2c1-c1cccc(Cl)c1 [Compound 8] | > 500 | > 500 |
| N#Cc1cccc(S(=O)(=O)c2cnc3cc(F)ccc3c2-c2ccc(F)cc2)c1 [Compound 39] | < 200 | 200 to 500 |
| O=S(=O)(c1cc(Cl)cc(Cl)c1)c1cnc2cc(Cl)ccc2c1-c1ccc(F)cc1 [Compound 178] | < 200 | > 500 |
| COc1ccc(-c2c(S(=O)(=O)c3ccc(F)cc3)cnc3cc(F)ccc23)cc1 [Compound 10] | 200 to 500 | > 500 |
| N#Cc1cc(F)cc(S(=O)(=O)c2cnc3ccccc3c2-c2ccc(Cl)cc2)c1 [Compound 272] | < 200 | > 500 |
| COc1cccc(S(=O)(=O)c2cnc3cc(F)ccc3c2-c2cccc(Cl)c2)c1 [Compound 43] | < 200 | > 500 |
| N#Cc1cc(S(=O)(=O)c2cnc3ccccc3c2-c2ccc(Cl)c(Cl)c2)ccc1F [Compound 232] | < 200 | > 500 |
| COc1ccc(S(=O)(=O)c2cnc3cc(F)ccc3c2-c2cccc(F)c2)cc1Cl [Compound 48] | < 200 | > 500 |
| Cc1ccc(S(=O)(=O)c2cnc3ccc(F)cc3c2-c2ccc(F)cc2)cc1Cl [Compound 142] | < 200 | > 500 |
| O=S(=O)(c1cccc(F)c1)c1cnc2cc(F)ccc2c1-c1ccc(F)cc1 [Compound 16] | < 200 | > 500 |
| O=S(=O)(c1cc(Cl)cc(Cl)c1)c1cnc2cc(F)ccc2c1-c1cccc(Cl)c1 [Compound 156] | < 200 | 200 to 500 |
| COc1ccc(-c2c(S(=O)(=O)c3ccc(OC)c(Cl)c3)cnc3ccc(F)cc23)cc1 [Compound 74] | < 200 | > 500 |
| N#Cc1cccc(S(=O)(=O)c2cnc3cc(C#N)ccc3c2-c2ccc(Cl)cc2)c1 [Compound 191] | 200 to 500 | > 500 |
| O=S(=O)(c1ccc(F)c(F)c1)c1cnc2cc(F)ccc2c1-c1ccc(F)c(F)c1 [Compound 251] | < 200 | > 500 |
| COc1cccc(-c2c(S(=O)(=O)c3ccc(C)c(C)c3)cnc3cc(F)ccc23)c1 [Compound 19] | < 200 | > 500 |
| O=S(=O)(c1cc(Cl)cc(Cl)c1)c1cnc2cc(F)ccc2c1-c1ccc(F)cc1 [Compound 83] | – | 200 to 500 |
